{"source": "patent US20230142789A1", "about": "“A SWEETENER OR SWEETNESS ENHANCER COMPOSITION” (ANALYTICON DISCOVERY GMBH, priority 2020, published 2023)", "assay": "Organoleptic test of the compounds against sucrose", "type": "in vivo", "set-up": "key: 3: sweeter than the control solution; 2: sweetness comparable with the control solution; 1: less sweet than the control solution but still sweet", "conditions": "0.4 mg/ml (400 ppm) in non-carbonated mineral water vs sucrose 20 g/l; panel of 3-4 panelists", "protocol": "The isolated pure compound was dissolved in non-carbonated mineral water (“Evian”) in a concentration of 0.4 mg/ml (400 ppm). The sweet taste of each sample was compared by a panel of 3-4 panelists with a solution of sucrose in a concentration of 20 g/I.", "data": [{"molecule": "11-Oxoisomogroside V [11-Isomogroside V]", "values": [{"measurement": "Sweetness", "value": 3}]}, {"molecule": "C[C@H](CC[C@@H](O[C@@H]1O[C@H](CO[C@@H]2O[C@H](CO)[C@@H](O)[C@H](O)[C@H]2O)[C@@H](O)[C@H](O)[C@H]1O[C@@H]1O[C@H](CO)[C@@H](O)[C@H](O)[C@H]1O)C(C)(C)O)[C@H]1CC[C@@]2(C)[C@@H]3CC=C4C(CC[C@H](O[C@@H]5O[C@H](CO[C@@H]6O[C@H](CO[C@@H]7O[C@H](CO)[C@@H](O)[C@H](O)[C@H]7O)[C@@H](O)[C@H](O)[C@H]6O)[C@@H](O)[C@H](O)[C@H]5O)C4(C)C)[C@]3(C)[C@H](O)C[C@]12C", "note": "(some centres unmarked) [Mogroside Via]", "values": [{"measurement": "Sweetness", "value": 3}]}]}
